Experiments:
[1] = molecular target: hCB2 Cannabinoid Receptors (Homo sapiens, UniProt P34972); experiment: [35S]GTPγS binding assay for efficacy, CHO-hCB2 membranes; format: biochemical; conditions: from [35S]GTPγS binding
hCB1 = hCB1 (Homo sapiens, UniProt P21554); format: binding; conditions: propyl tail versus pentyl
hCB2 [2] = format: binding, human; conditions: Ki hCB1 / Ki hCB2
hCB2 [3] = conditions: literature values; cited from earlier work

Sequence of hCB2 Cannabinoid Receptors (P34972 whole entry): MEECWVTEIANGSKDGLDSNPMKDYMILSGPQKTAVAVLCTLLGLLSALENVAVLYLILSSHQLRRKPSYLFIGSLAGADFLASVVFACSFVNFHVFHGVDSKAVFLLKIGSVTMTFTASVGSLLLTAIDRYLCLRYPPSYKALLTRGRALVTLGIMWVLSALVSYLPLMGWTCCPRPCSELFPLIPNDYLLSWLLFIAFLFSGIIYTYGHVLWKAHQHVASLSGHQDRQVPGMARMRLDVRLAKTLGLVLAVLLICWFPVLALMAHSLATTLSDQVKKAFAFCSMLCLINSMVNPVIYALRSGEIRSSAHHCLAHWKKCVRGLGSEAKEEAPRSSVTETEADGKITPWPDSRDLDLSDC
Sequence of hCB1 (P21554 whole entry): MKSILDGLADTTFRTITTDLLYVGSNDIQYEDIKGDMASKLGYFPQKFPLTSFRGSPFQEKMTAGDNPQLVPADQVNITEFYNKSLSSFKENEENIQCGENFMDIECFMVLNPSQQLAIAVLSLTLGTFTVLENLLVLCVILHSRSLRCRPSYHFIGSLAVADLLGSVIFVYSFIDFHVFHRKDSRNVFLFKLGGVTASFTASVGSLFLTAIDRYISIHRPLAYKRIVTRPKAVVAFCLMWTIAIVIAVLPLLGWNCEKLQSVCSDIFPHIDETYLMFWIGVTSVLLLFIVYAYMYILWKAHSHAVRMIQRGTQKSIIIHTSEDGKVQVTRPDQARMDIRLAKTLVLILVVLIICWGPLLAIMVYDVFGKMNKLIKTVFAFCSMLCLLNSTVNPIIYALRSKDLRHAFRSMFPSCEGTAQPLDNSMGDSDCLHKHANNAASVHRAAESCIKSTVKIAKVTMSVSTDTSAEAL

Compound: CCCCCn1cc(C(=O)c2cccc3c2CC(C)(C)C3)c2ccccc21 [GBD-002, (2,2-dimethyl-2,3-dihydro-1H-inden-4-yl) (1-pentyl-1H-indol-3-yl)methanone]
- functional characterization at hCB2 [1]: full agonist

Compound: CCCCCn1cc(C(=O)c2ccc3c(c2)CC(C)(C)C3)c2ccccc21 [GBD-003, (2,2-Dimethyl-2,3-dihydro-1H-inden-5-yl) (1-pentyl-1H-indol-3-yl)methanone]
- functional characterization at hCB2 [1]: CB2R antagonist

Compound: CCCn1cc(C(=O)c2ccc3c(c2)CC(C)(C)C3)c2ccccc21 [GBD-005, (2,2-dimethyl-2,3-dihydro-1H-inden-5-yl) (1-propyl-1H-indol-3-yl)methanone]
- reduction in CB1R affinity (hCB1): > 60 fold
- functional characterization at hCB2 [1]: neutral antagonists

Compound: C=CCCCn1cc(C(=O)c2ccc3c(c2)CC(C)(C)C3)c2ccccc21 [GBD-013, (2,2-Dimethyl-2,3-dihydro-1H-inden-5-yl) (1-(pent-4-en-1-yl)-1H-indol-3-yl)methanone]
- selectivity index (SI) for CB2 (hCB2 [2]): 10

Compound: C#CCCCn1cc(C(=O)c2ccc3c(c2)CC(C)(C)C3)c2ccccc21 [GBD-014, (2,2-Dimethyl-2,3-dihydro-1H-inden-5-yl) (1-(pent-4-yn-1-yl)-1H-indol-3-yl)methanone]
- functional characterization at hCB2 ([1]; listed as 35): neutral antagonists

Compound: C#CCCCn1c(C)c(C(=O)c2ccc3c(c2)CC(C)(C)C3)c2ccccc21 [GBD-029, (2,2-Dimethyl-2,3-dihydro-1H-inden-5-yl) (2-methyl-1-(pent-4-yn-1-yl)-1H-indol-3-yl)methanone]
- functional characterization at hCB2 ([1]; listed as 49): agonist

Compound: CCCn1c(C)c(C(=O)c2cccc3ccccc23)c2ccccc21 [JWH-015]
- SI (CB2 selectivity) (hCB2 [3]): 24

Compound: CCCn1cc(C(=O)c2cccc3ccccc23)c2ccccc21 [JWH-072]
- SI (CB2 selectivity) (hCB2 [3]): 6
